Measured values as given in patent publication US20180289678A1, “PHARMACEUTICAL COMPOSITION, PHARMACEUTICAL DOSAGE FORM, PROCESS FOR THEIR PREPARATION, METHODS FOR TREATING AND USES THEREOF” (Boehringer Ingelheim International GmbH, priority 2009, published 2018).
Like-named read-outs stand apart in the source and are kept apart here.

Assay: Study .4: 4-week treatment of diabetic patients, once daily, pharmacokinetic parameters
Format: in vivo, human
Settings: for AUCτ,ss,norm Max / AUCτ,ss,norm Median / AUCτ,ss,norm Min / AUCτ,ss,norm gMean: Study .4, steady state, dose-normalized
Description: 5. Pharmacokinetic Parameters
The pharmacokinetic parameters of pharmaceutical compositions and pharmaceutical dosage forms are assessed in healthy volunteer and patient populations. In the studies shown below, the participants fasted on the day of sampling, unless as otherwise stated (see for example study .3). The active substance in the studies below is the compound (I.9), preferably in the crystalline form (I.9X), and the dose of active ingredient is indicated in mg.
For the quantification of plasma concentrations of the active ingredient, 2.7 mL of blood was collected and transferred into an EDTA (ethylendiaminetetraacetic acid)-anticoagulant blood drawing tube. The EDTA-anticoagulated blood samples were centrifuged immediately after collection. Centrifugation lasted for about 10 minutes (at about 2,000×gf to 4,000×gf) at 4-8° C. or within 30 minutes while stored on ice. Concentrations of active substance in EDTA human plasma samples were quantitated using a HPLC/MS/MS method. The assay method comprised a solid phase supported liquid-liquid extraction of human plasma coupled with HPLC/MS/MS determination of the extracted samples. The HPLC/MS/MS assay was validated for the range of 1.11 to 1110 nM in human plasma.
Study .4: 4-week treatment of a diabetic patient population of N=78, once daily administration for 4 weeks. Patients were administered tablets as described in Example 10 (section Examples of formulations).
AUC0-inf:area under the concentration-time curve of the analyte in plasma over the time interval from 0 extrapolated to infinity.
Cmax: maximum concentration of the analyte in plasma.
Tmax: time from dosing to maximum concentration.
AUCT,SS:area under the concentration-time curve of the analyte in plasma over the time interval from 0 to 24 h at steady-state.
Cmax,ss:maximum concentration of the analyte in plasma at steady state over a uniform dosing interval.
tmax,ss:time from dosing to maximum concentration at steady state.

[1] = 10 mg once daily, steady state, Study .4, fasted
[2] = 10 mg single dose, Study .4, fasted
[3] = 25 mg once daily, steady state, Study .4, fasted
[4] = 25 mg single dose, Study .4, fasted

## OC[C@H]1O[C@@H](c2ccc(Cl)c(Cc3ccc(O[C@H]4CCOC4)cc3)c2)[C@H](O)[C@@H](O)[C@@H]1O [Compound (I.9), 1-chloro-4-(β-D-glucopyranos-1-yl)-2-[4-((S)-tetrahydrofuran-3-yloxy)-benzyl]-benzene]
[1]
  AUCτ,ss Max: 2600 nM·h
  AUCτ,ss Min: 1350 nM·h
  tmax,ss Max: 4.00 h
  tmax,ss Min: 0.983 h
10 mg once daily, steady state, Study .4, fasted, read-out: Cmax,ss Max
  Cmax: 0.367 µM
[2]
  AUC0-inf Max: 2410 nM·h
  AUC0-inf Min: 1390 nM·h
  AUC0-inf,norm Max: 241 nmol·h/L/mg
  AUC0-inf,norm Median: 173 nmol·h/L/mg
  AUC0-inf,norm Min: 139 nmol·h/L/mg
  AUC0-inf,norm gMean: 172 nmol·h/L/mg
  tmax Max: 2.50 h
  tmax Min: 1.00 h
10 mg single dose, Study .4, fasted, read-out: Cmax Max
  Cmax: 0.796 µM
10 mg single dose, Study .4, fasted, read-out: Cmax Min
  Cmax: 0.205 µM
[3]
  AUCτ,ss Max: 7640 nM·h
  AUCτ,ss Min: 2790 nM·h
  tmax,ss Max: 3.02 h
  tmax,ss Min: 0.750 h
[4]
  AUC0-inf Max: 7170 nM·h
  AUC0-inf Min: 2840 nM·h
  AUC0-inf,norm Max: 287 nmol·h/L/mg
  AUC0-inf,norm Median: 171 nmol·h/L/mg
  AUC0-inf,norm Min: 114 nmol·h/L/mg
  AUC0-inf,norm gMean: 170 nmol·h/L/mg
  tmax Min: 0.750 h
25 mg single dose, Study .4, fasted, read-out: Cmax Max
  Cmax: 1.03 µM
25 mg single dose, Study .4, fasted, read-out: Cmax Min
  Cmax: 0.496 µM
Dose 10 mg, plasma
  AUCτ,ss,norm Max: 260 nmol·h/L/mg
  AUCτ,ss,norm Median: 184 nmol·h/L/mg
  AUCτ,ss,norm Min: 135 nmol·h/L/mg
  AUCτ,ss,norm gMean: 185 nmol·h/L/mg
Dose 25 mg, plasma
  AUCτ,ss,norm Max: 306 nmol·h/L/mg
  AUCτ,ss,norm Median: 179 nmol·h/L/mg
  AUCτ,ss,norm Min: 112 nmol·h/L/mg
  AUCτ,ss,norm gMean: 186 nmol·h/L/mg
human, plasma, oral, 10 mg, 10 mg once daily, steady state, Study .4, fasted, read-out: AUCτ,ss Mean
  AUC: 1870 nM·h
human, plasma, oral, 10 mg, 10 mg once daily, steady state, Study .4, fasted, read-out: AUCτ,ss Median
  AUC: 1840 nM·h
human, plasma, oral, 10 mg, 10 mg once daily, steady state, Study .4, fasted, read-out: AUCτ,ss gMean
  AUC: 1850 nM·h
human, plasma, oral, 10 mg, 10 mg once daily, steady state, Study .4, fasted, read-out: Cmax,ss Mean
  Cmax: 0.259 µM
human, plasma, oral, 10 mg, 10 mg once daily, steady state, Study .4, fasted, read-out: Cmax,ss Median
  Cmax: 0.251 µM
human, plasma, oral, 10 mg, 10 mg once daily, steady state, Study .4, fasted, read-out: Cmax,ss gMean
  Cmax: 0.252 µM
human, plasma, oral, 10 mg, 10 mg once daily, steady state, Study .4, fasted, read-out: tmax,ss Mean
  Tmax: 1.72 h
human, plasma, oral, 10 mg, 10 mg once daily, steady state, Study .4, fasted, read-out: tmax,ss Median
  Tmax: 1.5 h
human, plasma, oral, 10 mg, 10 mg once daily, steady state, Study .4, fasted, read-out: tmax,ss g Mean
  Tmax: 1.61 h
human, plasma, oral, 10 mg, 10 mg single dose, Study .4, fasted, read-out: AUC0-inf Mean
  AUC(0-inf): 1740 nM·h
human, plasma, oral, 10 mg, 10 mg single dose, Study .4, fasted, read-out: AUC0-inf Median
  AUC(0-inf): 1730 nM·h
human, plasma, oral, 10 mg, 10 mg single dose, Study .4, fasted, read-out: AUC0-inf gMean
  AUC(0-inf): 1720 nM·h
human, plasma, oral, 10 mg, 10 mg single dose, Study .4, fasted, read-out: Cmax Mean
  Cmax: 0.309 µM
human, plasma, oral, 10 mg, 10 mg single dose, Study .4, fasted, read-out: Cmax Median
  Cmax: 0.271 µM
human, plasma, oral, 10 mg, 10 mg single dose, Study .4, fasted, read-out: Cmax gMean
  Cmax: 0.291 µM
human, plasma, oral, 10 mg, 10 mg single dose, Study .4, fasted, read-out: tmax Mean
  Tmax: 1.5 h
human, plasma, oral, 10 mg, 10 mg single dose, Study .4, fasted, read-out: tmax Median
  Tmax: 1.5 h
human, plasma, oral, 10 mg, 10 mg single dose, Study .4, fasted, read-out: tmax gMean
  Tmax: 1.44 h
human, plasma, oral, 25 mg, 25 mg once daily, steady state, Study .4, fasted, read-out: AUCτ,ss Mean
  AUC: 4740 nM·h
human, plasma, oral, 25 mg, 25 mg once daily, steady state, Study .4, fasted, read-out: AUCτ,ss Median
  AUC: 4480 nM·h
human, plasma, oral, 25 mg, 25 mg once daily, steady state, Study .4, fasted, read-out: AUCτ,ss gMean
  AUC: 4640 nM·h
human, plasma, oral, 25 mg, 25 mg once daily, steady state, Study .4, fasted, read-out: Cmax,ss Mean
  Cmax: 0.687 µM
human, plasma, oral, 25 mg, 25 mg once daily, steady state, Study .4, fasted, read-out: Cmax,ss Median
  Cmax: 0.671 µM
